In ChEMBL document CHEMBL3217532, “New analyses of MIC90 data to aid antibacterial drug discovery” (2011):
In brackets after ≈: the same amount, converted by molar mass.

Key:
Format in all cases: functional
Pseudomonas aeruginosa [1] = experiment: Antimicrobial activity against Pseudomonas aeruginosa 1760-00
Pseudomonas aeruginosa [2] = experiment: Antimicrobial activity against Pseudomonas aeruginosa 1955-00
Pseudomonas aeruginosa [3] = experiment: Antimicrobial activity against Pseudomonas aeruginosa PA-4993
Pseudomonas aeruginosa [4] = experiment: Antimicrobial activity against Pseudomonas aeruginosa 1527-08
Pseudomonas aeruginosa [5] = experiment: Antimicrobial activity against Pseudomonas aeruginosa 1564-05
Pseudomonas aeruginosa [6] = experiment: Antimicrobial activity against Pseudomonas aeruginosa 1566-05
Pseudomonas aeruginosa [7] = experiment: Antimicrobial activity against Pseudomonas aeruginosa 1768-00
Pseudomonas aeruginosa [8] = experiment: Antimicrobial activity against Pseudomonas aeruginosa 1568-05
Pseudomonas aeruginosa [9] = experiment: Antimicrobial activity against Pseudomonas aeruginosa 1753-00
Pseudomonas aeruginosa [10] = experiment: Antimicrobial activity against Pseudomonas aeruginosa 1612-09
Pseudomonas aeruginosa [11] = experiment: Antimicrobial activity against Pseudomonas aeruginosa 1952-00
Pseudomonas aeruginosa [12] = experiment: Antimicrobial activity against Pseudomonas aeruginosa 1761-00
Pseudomonas aeruginosa [13] = experiment: Antimicrobial activity against Pseudomonas aeruginosa 1752-00
Pseudomonas aeruginosa [14] = experiment: Antimicrobial activity against Pseudomonas aeruginosa 1953-00
Pseudomonas aeruginosa [15] = experiment: Antimicrobial activity against Pseudomonas aeruginosa 1569-05
Pseudomonas aeruginosa [16] = experiment: Antimicrobial activity against Pseudomonas aeruginosa PA-4624
Pseudomonas aeruginosa [17] = experiment: Antimicrobial activity against Pseudomonas aeruginosa 1767-00
Pseudomonas aeruginosa [18] = experiment: Antimicrobial activity against Pseudomonas aeruginosa 1562-05
Pseudomonas aeruginosa [19] = experiment: Antimicrobial activity against Pseudomonas aeruginosa 1563-00
Pseudomonas aeruginosa [20] = experiment: Antimicrobial activity against Pseudomonas aeruginosa PA-75
Pseudomonas aeruginosa [21] = experiment: Antimicrobial activity against Pseudomonas aeruginosa 1523-08
Pseudomonas aeruginosa [22] = experiment: Antimicrobial activity against Pseudomonas aeruginosa PA-4999
Pseudomonas aeruginosa [23] = experiment: Antimicrobial activity against Pseudomonas aeruginosa 1567-05
Pseudomonas aeruginosa [24] = experiment: Antimicrobial activity against Pseudomonas aeruginosa 1954-00
Pseudomonas aeruginosa [25] = experiment: Antimicrobial activity against Pseudomonas aeruginosa 1764-00
Pseudomonas aeruginosa [26] = experiment: Antimicrobial activity against Pseudomonas aeruginosa PA-4991
Pseudomonas aeruginosa [27] = experiment: Antimicrobial activity against Pseudomonas aeruginosa 1512-08
Pseudomonas aeruginosa [28] = experiment: Antimicrobial activity against Pseudomonas aeruginosa 1956-00
Pseudomonas aeruginosa [29] = experiment: Antimicrobial activity against Pseudomonas aeruginosa 1565-05
Pseudomonas aeruginosa [30] = experiment: Antimicrobial activity against Pseudomonas aeruginosa 1521-08
Pseudomonas aeruginosa [31] = experiment: Antimicrobial activity against Pseudomonas aeruginosa PA-1757
Pseudomonas aeruginosa [32] = experiment: Antimicrobial activity against Pseudomonas aeruginosa 1619-08
Pseudomonas aeruginosa [33] = experiment: Antimicrobial activity against Pseudomonas aeruginosa 1515-08
Pseudomonas aeruginosa [34] = experiment: Antimicrobial activity against Pseudomonas aeruginosa 1951-00
Pseudomonas aeruginosa [35] = experiment: Antimicrobial activity against Pseudomonas aeruginosa 1570-05
Pseudomonas aeruginosa [36] = experiment: Antimicrobial activity against Pseudomonas aeruginosa 1510-08
Pseudomonas aeruginosa [37] = experiment: Antimicrobial activity against Pseudomonas aeruginosa PA-4997
Pseudomonas aeruginosa [38] = experiment: Antimicrobial activity against Pseudomonas aeruginosa 1766-00
Pseudomonas aeruginosa [39] = experiment: Antimicrobial activity against Pseudomonas aeruginosa PA-4995
Pseudomonas aeruginosa [40] = experiment: Antimicrobial activity against Pseudomonas aeruginosa 1614-09
Pseudomonas aeruginosa [41] = experiment: Antimicrobial activity against Pseudomonas aeruginosa PA-4990
Pseudomonas aeruginosa [42] = experiment: Antimicrobial activity against Pseudomonas aeruginosa 1613-09
Pseudomonas aeruginosa [43] = experiment: Antimicrobial activity against Pseudomonas aeruginosa 1514-08
Pseudomonas aeruginosa [44] = experiment: Antimicrobial activity against Pseudomonas aeruginosa 1615-09
Pseudomonas aeruginosa [45] = experiment: Antimicrobial activity against Pseudomonas aeruginosa 1513-08
Pseudomonas aeruginosa [46] = experiment: Antimicrobial activity against Pseudomonas aeruginosa 1611-09
Pseudomonas aeruginosa [47] = experiment: Antimicrobial activity against Pseudomonas aeruginosa 1765-00
Pseudomonas aeruginosa [48] = experiment: Antimicrobial activity against Pseudomonas aeruginosa 1526-08
Pseudomonas aeruginosa [49] = experiment: Antimicrobial activity against Pseudomonas aeruginosa 1509-08
Pseudomonas aeruginosa [50] = experiment: Antimicrobial activity against Pseudomonas aeruginosa 1561-05
Pseudomonas aeruginosa [51] = experiment: Antimicrobial activity against Pseudomonas aeruginosa 1957-00

## C[C@@H](O)[C@H]1C(=O)N2C(C(=O)O)=C(S[C@@H]3CN[C@H](C(=O)N(C)C)C3)[C@H](C)[C@H]12 [MEROPENEM]
Pseudomonas aeruginosa [1]
  MIC90: 4 µg/mL (≈ 10.4 µM)
Pseudomonas aeruginosa [2]
  MIC90: 1 µg/mL (≈ 2.61 µM)
Pseudomonas aeruginosa [3]
  MIC90: > 64 µg/mL
Pseudomonas aeruginosa [4]
  MIC90: 8 µg/mL (≈ 20.9 µM)
Pseudomonas aeruginosa [5]
  MIC90: 2 µg/mL (≈ 5.22 µM)
Pseudomonas aeruginosa [6]
  MIC90: 0.5 µg/mL (≈ 1.3 µM)
Pseudomonas aeruginosa [7]
  MIC90: 0.5 µg/mL (≈ 1.3 µM)
Pseudomonas aeruginosa [8]
  MIC90: 0.5 µg/mL (≈ 1.3 µM)
Pseudomonas aeruginosa [9]
  MIC90: 0.125 µg/mL (≈ 0.326 µM)
Pseudomonas aeruginosa [10]
  MIC90: 16 µg/mL (≈ 41.7 µM)
Pseudomonas aeruginosa [11]
  MIC90: 2 µg/mL (≈ 5.22 µM)
Pseudomonas aeruginosa [12]
  MIC90: 2 µg/mL (≈ 5.22 µM)
Pseudomonas aeruginosa [13]
  MIC90: 0.125 µg/mL (≈ 0.326 µM)
Pseudomonas aeruginosa [14]
  MIC90: 2 µg/mL (≈ 5.22 µM)
Pseudomonas aeruginosa [15]
  MIC90: 0.25 µg/mL (≈ 0.652 µM)
Pseudomonas aeruginosa [16]
  MIC90: 0.25 µg/mL (≈ 0.652 µM)
Pseudomonas aeruginosa [17]
  MIC90: 0.5 µg/mL (≈ 1.3 µM)
Pseudomonas aeruginosa [18]
  MIC90: 4 µg/mL (≈ 10.4 µM)
Pseudomonas aeruginosa [19]
  MIC90: 2 µg/mL (≈ 5.22 µM)
Pseudomonas aeruginosa [20]
  MIC90: 0.5 µg/mL (≈ 1.3 µM)
Pseudomonas aeruginosa [21]
  MIC90: 64 µg/mL (≈ 167 µM)
Pseudomonas aeruginosa [22]
  MIC90: 8 µg/mL (≈ 20.9 µM)
Pseudomonas aeruginosa [23]
  MIC90: 0.5 µg/mL (≈ 1.3 µM)
Pseudomonas aeruginosa [24]
  MIC90: 0.25 µg/mL (≈ 0.652 µM)
Pseudomonas aeruginosa [25]
  MIC90: 2 µg/mL (≈ 5.22 µM)
Pseudomonas aeruginosa [26]
  MIC90: 8 µg/mL (≈ 20.9 µM)
Pseudomonas aeruginosa [27]
  MIC90: > 64 µg/mL
Pseudomonas aeruginosa [28]
  MIC90: 0.5 µg/mL (≈ 1.3 µM)
Pseudomonas aeruginosa [29]
  MIC90: 0.5 µg/mL (≈ 1.3 µM)
Pseudomonas aeruginosa [30]
  MIC90: > 64 µg/mL
Pseudomonas aeruginosa [31]
  MIC90: 4 µg/mL (≈ 10.4 µM)
Pseudomonas aeruginosa [32]
  MIC90: 4 µg/mL (≈ 10.4 µM)
Pseudomonas aeruginosa [33]
  MIC90: 32 µg/mL (≈ 83.4 µM)
Pseudomonas aeruginosa [34]
  MIC90: 0.06 µg/mL (≈ 0.156 µM)
Pseudomonas aeruginosa [35]
  MIC90: 0.25 µg/mL (≈ 0.652 µM)
Pseudomonas aeruginosa [36]
  MIC90: > 64 µg/mL
Pseudomonas aeruginosa [37]
  MIC90: 64 µg/mL (≈ 167 µM)
Pseudomonas aeruginosa [38]
  MIC90: 2 µg/mL (≈ 5.22 µM)
Pseudomonas aeruginosa [39]
  MIC90: 16 µg/mL (≈ 41.7 µM)
Pseudomonas aeruginosa [40]
  MIC90: 4 µg/mL (≈ 10.4 µM)
Pseudomonas aeruginosa [41]
  MIC90: 32 µg/mL (≈ 83.4 µM)
Pseudomonas aeruginosa [42]
  MIC90: 0.25 µg/mL (≈ 0.652 µM)
Pseudomonas aeruginosa [43]
  MIC90: > 64 µg/mL
Pseudomonas aeruginosa [44]
  MIC90: 2 µg/mL (≈ 5.22 µM)
Pseudomonas aeruginosa [45]
  MIC90: 32 µg/mL (≈ 83.4 µM)
Pseudomonas aeruginosa [46]
  MIC90: 4 µg/mL (≈ 10.4 µM)
Pseudomonas aeruginosa [47]
  MIC90: 2 µg/mL (≈ 5.22 µM)
Pseudomonas aeruginosa [48]
  MIC90: > 64 µg/mL
Pseudomonas aeruginosa [49]
  MIC90: > 64 µg/mL
Pseudomonas aeruginosa [50]
  MIC90: 2 µg/mL (≈ 5.22 µM)
Pseudomonas aeruginosa [51]
  MIC90: 0.125 µg/mL (≈ 0.326 µM)
